Experimental data: ChEMBL document CHEMBL1201862, “PubChem BioAssay data set” (2004)
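Five concentrations, 48 hours, 96-well plates. GI50 is the concentration that inhibits growth by half.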 Calls of active or inactive are those of the source. Rule as the data show it: active = GI50 up to about 1.1 µM and inactive = higher. *1 amine or outer side, *2 acyl side, *3 side chain or, on linkers, in order; H or OH if unused. Where a SMILES comes first, the peptide text is derived from it. Bridges are numbered along the chain shown (N, C = ends). [ ]: non-standard residue; d: D form. X36 = CC[C@H](C)[C@@H](N[*:1])[C@@H](O)CC(=O)O[C@H](C(=O)[C@H](C)C(=O)[*:2])C(C)C; NMeY = CN[C@@H](Cc1ccc(O)cc1)C(=O)O

Assays:
Test in all cases: DTP human tumour cell line panel, 48 h
A549 = tested on: A549
Malme-3M = tested on: Malme-3M
SK-MEL-28 = tested on: SK-MEL-28
SK-OV-3 = tested on: SK-OV-3
CCRF-CEM = tested on: CCRF-CEM
SK-MEL-2 = tested on: SK-MEL-2
SK-MEL-5 = tested on: SK-MEL-5
HOP-92 = tested on: HOP-92
K562 = tested on: K562
LOX IMVI = tested on: LOX IMVI
UACC-257 = tested on: UACC-257
HCT-116 = tested on: HCT-116
M14 = tested on: M14
OVCAR-5 = tested on: OVCAR-5
U-251 = tested on: U-251
HCT-15 = tested on: HCT-15
OVCAR-4 = tested on: OVCAR-4
CAKI-1 = tested on: CAKI-1
NCI/ADR-RES = tested on: NCI/ADR-RES

Row | Compound | GI50 (A549) | GI50 (Malme-3M) | GI50 (SK-MEL-28) | GI50 (SK-OV-3) | GI50 (CCRF-CEM) | GI50 (SK-MEL-2) | GI50 (SK-MEL-5) | GI50 (HOP-92) | GI50 (K562) | GI50 (LOX IMVI) | GI50 (UACC-257) | GI50 (HCT-116) | GI50 (M14) | GI50 (OVCAR-5) | GI50 (U-251) | GI50 (HCT-15) [µM] | GI50 (OVCAR-4) | GI50 (CAKI-1) | GI50 (NCI/ADR-RES)
1 | O=C1OC(c2ccccc2)=N/C1=C\c1cccc2ccccc12 | > 100 µM (inactive) | > 100 µM (inactive) | > 100 µM (inactive) | > 100 µM (inactive) | > 100 µM (inactive) | > 100 µM (inactive) | > 100 µM (inactive) | 52.4 µM (inactive) | > 100 µM (inactive) | > 100 µM (inactive) | > 100 µM (inactive) | > 100 µM (inactive) | > 100 µM (inactive) | > 100 µM (inactive) | > 100 µM (inactive) | > 100 | > 100 µM (inactive) | > 100 µM (inactive) | –
2 | CC[C@H](C)[C@H]1NC(=O)[C@@H](N)[C@@H](C)OC(=O)[C@H](Cc2ccc(OC)cc2)N(C)C(=O)[C@@H]2CCCN2C(=O)[C@H](CC(C)C)NC(=O)[C@@H](C)C(=O)[C@H](C(C)C)OC(=O)C[C@@H]1O (H-T[X36]LP[NMeY](Me); ester 1-C) | 19.3 µM (inactive) | 31.7 µM (inactive) | 16.8 µM (inactive) | 35.6 µM (inactive) | 22.3 µM (inactive) | 46 µM (inactive) | 12.9 µM (inactive) | – | 18.4 µM (inactive) | 21.6 µM (inactive) | 15.6 µM (inactive) | – | 4.84 µM (inactive) | 31.5 µM (inactive) | 29.5 µM (inactive) | 36.7 | 54.5 µM (inactive) | – | > 100 µM (inactive)
3 | O=C(CSCC(=O)N/N=C\c1ccc(O)c(O)c1O)N/N=C\c1ccc(O)c(O)c1O | 23.9 µM (inactive) | 22.6 µM (inactive) | 20.8 µM (inactive) | 31.6 µM (inactive) | 1.73 µM (inactive) | 28.3 µM (inactive) | 18.5 µM (inactive) | 31 µM (inactive) | – | 2.18 µM (inactive) | 5.25 µM (inactive) | 3.37 µM (inactive) | 6.31 µM (inactive) | – | 4.84 µM (inactive) | 13.4 | 2.48 µM (inactive) | 16.7 µM (inactive) | 1.54 µM (inactive)
4 | CCCOC(=O)C1CCC(=O)N1C(=O)C(Cl)Cl (stereo not drawn) | > 100 µM (inactive) | > 100 µM (inactive) | > 100 µM (inactive) | > 100 µM (inactive) | > 100 µM (inactive) | > 100 µM (inactive) | > 100 µM (inactive) | > 100 µM (inactive) | > 100 µM (inactive) | > 100 µM (inactive) | > 100 µM (inactive) | > 100 µM (inactive) | > 100 µM (inactive) | > 100 µM (inactive) | > 100 µM (inactive) | > 100 | > 100 µM (inactive) | > 100 µM (inactive) | –
5 | Cc1cc(Cl)ccc1N1C(=O)C(=O)C(c2nc3ccccc3s2)/C(=N\NC(=O)c2ccccc2O)C1=O (stereo not drawn) | > 100 µM (inactive) | > 100 µM (inactive) | > 100 µM (inactive) | > 100 µM (inactive) | > 100 µM (inactive) | > 100 µM (inactive) | > 100 µM (inactive) | 46.7 µM (inactive) | > 100 µM (inactive) | > 100 µM (inactive) | > 100 µM (inactive) | > 100 µM (inactive) | > 100 µM (inactive) | > 100 µM (inactive) | > 100 µM (inactive) | > 100 | > 100 µM (inactive) | > 100 µM (inactive) | –
6 | CN(C)c1nc(N)nc(CCl)n1 | 78.9 µM (inactive) | – | 50.4 µM (inactive) | 56.2 µM (inactive) | 17.4 µM (inactive) | > 100 µM (inactive) | 29.5 µM (inactive) | 20.7 µM (inactive) | 29 µM (inactive) | 7.87 µM (inactive) | 87.7 µM (inactive) | 54.8 µM (inactive) | 28.1 µM (inactive) | 65.9 µM (inactive) | 35.2 µM (inactive) | 29.4 | 19.6 µM (inactive) | 5.14 µM (inactive) | 22 µM (inactive)
7 | O=C1c2ccccc2C(=O)N1/N=C\c1ccc(Br)cc1 | > 10 µM (inactive) | > 10 µM (inactive) | > 10 µM (inactive) | > 100 µM (inactive) | > 10 µM (inactive) | > 10 µM (inactive) | > 10 µM (inactive) | > 10 µM (inactive) | > 10 µM (inactive) | > 10 µM (inactive) | > 10 µM (inactive) | > 10 µM (inactive) | > 10 µM (inactive) | > 10 µM (inactive) | > 100 µM (inactive) | > 10 | > 10 µM (inactive) | > 10 µM (inactive) | –
8 | CCOC(=O)C12C(C(=O)OC)=C(C)N(NC(=O)Nc3ccccc3)C1(N)N(NC(=O)Nc1ccccc1)C(C)=C2C(=O)OC (stereo not drawn) | 44.6 µM (inactive) | 21.6 µM (inactive) | 34.1 µM (inactive) | > 59.8 µM (inactive) | 23.7 µM (inactive) | 19.9 µM (inactive) | 19.9 µM (inactive) | 24.9 µM (inactive) | 29.9 µM (inactive) | 17 µM (inactive) | 21.1 µM (inactive) | 25.3 µM (inactive) | 21.2 µM (inactive) | 38.5 µM (inactive) | 17.7 µM (inactive) | 35.2 | 39.8 µM (inactive) | 34.9 µM (inactive) | –
9 | COC(=O)c1cc2c(cc1Cl)Sc1nnc(Nc3ccccc3)n1S2(=O)=O | 8.47 µM (inactive) | 3.03 µM (inactive) | 3.15 µM (inactive) | 6.75 µM (inactive) | 2.3 µM (inactive) | 2.81 µM (inactive) | 7.96 µM (inactive) | 1.42 µM (inactive) | 3.41 µM (inactive) | 7.98 µM (inactive) | 7.66 µM (inactive) | 3.61 µM (inactive) | 4.41 µM (inactive) | 7.93 µM (inactive) | 2.76 µM (inactive) | 2.34 | 3.37 µM (inactive) | 2.42 µM (inactive) | 8.47 µM (inactive)
10 | CC(C)N(C(=O)C12C3C4C5(C#N)C3C1(I)C5C42I)C(C)C (stereo not drawn) | > 100 µM (inactive) | > 100 µM (inactive) | > 100 µM (inactive) | > 100 µM (inactive) | > 44.3 µM (inactive) | > 100 µM (inactive) | > 100 µM (inactive) | > 100 µM (inactive) | > 52.8 µM (inactive) | > 40.3 µM (inactive) | > 100 µM (inactive) | 17.8 µM (inactive) | > 100 µM (inactive) | > 100 µM (inactive) | > 84.1 µM (inactive) | > 41.9 | > 45.5 µM (inactive) | > 100 µM (inactive) | –
11 | COC(=O)[C@@]12C(=O)CCC(=O)C1C1C(=CC2C)O[C@@H]2OC3(CCCCC3)O[C@H]12 (stereo partly drawn) | > 100 µM (inactive) | > 100 µM (inactive) | 97.3 µM (inactive) | > 100 µM (inactive) | 29.9 µM (inactive) | > 100 µM (inactive) | > 100 µM (inactive) | 40.5 µM (inactive) | 40.3 µM (inactive) | > 72.1 µM (inactive) | > 100 µM (inactive) | 43.8 µM (inactive) | > 100 µM (inactive) | > 100 µM (inactive) | > 100 µM (inactive) | 54.2 | 59.2 µM (inactive) | > 90.4 µM (inactive) | –
12 | CC1(C)COC(c2cccc(C3=NC(C)(C)CO3)c2)=N1 | > 100 µM (inactive) | > 100 µM (inactive) | > 100 µM (inactive) | – | – | > 100 µM (inactive) | > 100 µM (inactive) | > 100 µM (inactive) | > 100 µM (inactive) | > 100 µM (inactive) | > 100 µM (inactive) | > 100 µM (inactive) | > 100 µM (inactive) | > 100 µM (inactive) | > 100 µM (inactive) | > 100 | 83.9 µM (inactive) | > 100 µM (inactive) | > 100 µM (inactive)
13 | Cn1c(=O)c2c(nc3n(Cc4ccccc4)c(=O)c(NCCCBr)cn23)n(C)c1=O | > 100 µM (inactive) | – | > 100 µM (inactive) | 36.6 µM (inactive) | > 100 µM (inactive) | > 100 µM (inactive) | > 100 µM (inactive) | 18.1 µM (inactive) | > 100 µM (inactive) | 99.1 µM (inactive) | > 100 µM (inactive) | 54 µM (inactive) | > 100 µM (inactive) | > 100 µM (inactive) | 34.1 µM (inactive) | > 100 | > 100 µM (inactive) | > 100 µM (inactive) | > 100 µM (inactive)
14 | CC(C)(CO)NC(=O)c1cccs1 | > 100 µM (inactive) | > 100 µM (inactive) | > 100 µM (inactive) | > 100 µM (inactive) | > 100 µM (inactive) | > 100 µM (inactive) | > 100 µM (inactive) | > 100 µM (inactive) | > 100 µM (inactive) | > 100 µM (inactive) | > 100 µM (inactive) | > 100 µM (inactive) | > 100 µM (inactive) | > 100 µM (inactive) | > 100 µM (inactive) | > 100 | > 100 µM (inactive) | > 100 µM (inactive) | > 100 µM (inactive)
15 | N#CN=C(NCc1ccccc1)NCc1ccccc1 | > 83 µM (inactive) | > 100 µM (inactive) | > 100 µM (inactive) | > 100 µM (inactive) | > 100 µM (inactive) | > 100 µM (inactive) | > 100 µM (inactive) | > 100 µM (inactive) | > 75.3 µM (inactive) | > 100 µM (inactive) | > 100 µM (inactive) | 18.4 µM (inactive) | > 100 µM (inactive) | > 100 µM (inactive) | > 48.2 µM (inactive) | > 40.3 | > 100 µM (inactive) | > 100 µM (inactive) | –
